In publication PMC8733726, “Dioctanoyl Ultrashort Tetrabasic β-Peptides Sensitize Multidrug-Resistant Gram-Negative Bacteria to Novobiocin and Rifampicin” (Frontiers in Microbiology, 2021):
≈ marks a conversion by molar mass, not a printed value. Like-named read-outs stand apart in the source and are kept apart here.

How the values were obtained:
[1] = tested on: MDR E. cloacae clinical isolates; experiment: Resistance phenotype (MICs of antibiotics) of MDR clinical isolates; format: cell-based, Enterobacter cloacae; conditions: Enterobacter cloacae, read-out: MIC
[2] = tested on: wild-type A. baumannii ATCC 17978; experiment: Checkerboard assay; format: cell-based, Acinetobacter baumannii; conditions: ATCC 17978; for MICcombo: antibiotic with dUSTBβP 3 at 8 μg/mL; for MIC: Acinetobacter baumannii, ATCC17978, 18 h, antibiotic alone (Supplementary Table 7), read-out: MICantibiotic
From the text: (§1) Overnight-grown bacterial culture diluted in saline to 0.5 McFarland turbidity was successively diluted 1:50 in MHB to achieve a final concentration of 5 × 10^5 CFU/mL for inoculation. The antibiotic and adjuvant were serially diluted 2-fold along the x-axis and y-axis, respectively, resulting in varying concentrations of both agents in each well. […] Confirmation of turbidity was done using an EMax Plus microplate reader (Molecular Devices, United States) at a wavelength of 590 nm. Wells comprising MHB alone or in the presence of bacterial cells were used as negative or positive controls, respectively. Fractional inhibitory concentration index (FICI) is determined by adding the FICs of both antibiotic and adjuvant. The FIC of the antibiotic is calculated by dividing the MIC of the antibiotic in the presence of the adjuvant by the MIC of the antibiotic alone. Similarly, the FIC of the adjuvant is calculated by dividing the MIC of the adjuvant in the presence of the antibiotic by the MIC of the adjuvant alone.

[3] = tested on: wild-type E. coli ATCC 25922; experiment: microbe, parasite or virus in culture; format: cell-based, Escherichia coli; conditions: ATCC 25922; for MICcombo: antibiotic with dUSTBβP 3 at 8 μg/mL; for MIC: Escherichia coli, ATCC25922, 18 h, antibiotic alone (Supplementary Table 7), read-out: MICantibiotic
Description: The adjuvant activities of dUSTBβPs were evaluated using checkerboard assay as previously described ([Berry et al., 2019]). Overnight-grown bacterial culture diluted in saline to 0.5 McFarland turbidity was successively diluted 1:50 in MHB to achieve a final concentration of 5 × 10^5 CFU/mL for inoculation. The antibiotic and adjuvant were serially diluted 2-fold along the x-axis and y-axis, respectively, resulting in varying concentrations of both agents in each well. Subsequently, the 96-well plate was incubated with equal volumes of bacterial inoculum at 37°C for 18 h. Confirmation of turbidity was done using an EMax Plus microplate reader (Molecular Devices, United States) at a wavelength of 590 nm. Wells comprising MHB alone or in the presence of bacterial cells were used as negative or positive controls, respectively. Fractional inhibitory concentration index (FICI) is determined by adding the FICs of both antibiotic and adjuvant. The FIC of the antibiotic is calculated by dividing the MIC of the antibiotic in the presence of the adjuvant by the MIC of the antibiotic alone. Similarly, the FIC of the adjuvant is calculated by dividing the MIC of the adjuvant in the presence of the antibiotic by the MIC of the adjuvant alone. FICI ≤ 0.5, 0.5 < x ≤ 4, and >4 were deemed synergistic, additive, and antagonistic, respectively ([Meletiadis et al., 2010]).

[4] = tested on: MDR P. aeruginosa clinical isolates; experiment: Resistance phenotype (MICs of antibiotics) of MDR clinical isolates; format: cell-based, Pseudomonas aeruginosa; conditions: Pseudomonas aeruginosa
[5] = tested on: MDR E. coli clinical isolates; experiment: as above; format: cell-based, Escherichia coli; conditions: Escherichia coli, read-out: MIC
[6] = tested on: MDR K. pneumoniae clinical isolates; experiment: as above; format: cell-based, Klebsiella pneumoniae; conditions: Klebsiella pneumoniae, read-out: MIC
[7] = tested on: wild-type P. aeruginosa PAO1; experiment: microbe, parasite or virus in culture; format: cell-based, Pseudomonas aeruginosa; conditions: PAO1; for MICcombo: antibiotic with dUSTBβP 3 at 8 μg/mL; for MIC: Pseudomonas aeruginosa, 18 h, antibiotic alone (Supplementary Table 7), read-out: MICantibiotic
From the text: as §1

[8] = tested on: MDR A. baumannii clinical isolates; experiment: Resistance phenotype (MICs of antibiotics) of MDR clinical isolates; format: cell-based, Acinetobacter baumannii; conditions: Acinetobacter baumannii

MIC [1]; 118564 [µg/mL] | MIC [1]; 121187 [µg/mL] | MICcombo [2] [µg/mL] | MIC [2] [µg/mL] | MICcombo [3] [µg/mL] | MIC [3] [µg/mL] | MICcombo [7] [µg/mL] | MIC [7] [µg/mL] | Compound | MIC [1]; 117029 [µg/mL] | MIC ([4]; 259-96196, read-out: MIC) [µg/mL] | MIC ([4]; 262-101856, read-out: MIC) [µg/mL] | MIC ([4]; 91433, read-out: MIC) [µg/mL] | MIC ([4]; 114228, read-out: MIC) [µg/mL] | MIC ([5]; 94393 (mcr-1 +)) [µg/mL] | MIC ([5]; 94474 (mcr-1 +)) [µg/mL] | MIC [5]; 107115 [µg/mL] | MIC [6]; 113250 [µg/mL] | MIC [6]; 113254 [µg/mL] | MIC [6]; 116381 [µg/mL] | MIC ([8]; LAC-4, read-out: MIC) [µg/mL] | other results
4 (≈ 9 µM) | > 32 | 0.25 | 0.25 | 0.25 | 1 | 0.5 | 8 (≈ 18 µM) | C[C@H]1c2cccc(O)c2C(=O)C2=C(O)[C@]3(O)C(=O)C(C(N)=O)=C(O)[C@@H](N(C)C)[C@@H]3[C@@H](O)[C@@H]21 [Doxycycline] | > 32 | 32 (≈ 72 µM) | 1020 (≈ 2300 µM) | 32 (≈ 72 µM) | 16 (≈ 36 µM) | 4 (≈ 9 µM) | > 32 | > 32 | 2 (≈ 4.5 µM) | 128 (≈ 288 µM) | 1 (≈ 2.25 µM) | < 4 | MIC ([4]; 264-104354, read-out: MIC): 64 µg/mL (≈ 144 µM)
– | – | 32 | > 128 | 0.125 | 2 | 4 | 4 (≈ 7.73 µM) | CCN1CCN(C(=O)N[C@@H](C(=O)N[C@@H]2C(=O)N3[C@@H]2SC(C)(C)[C@@H]3C(=O)O)c2ccccc2)C(=O)C1=O [Piperacillin] | – | – | – | – | – | – | – | – | – | – | – | – | –
– | – | 64 | 512 | 4 | 64 | 128 | 2050 (≈ 4820 µM) | CCC[C@@H]1C[C@@H](C(=O)N[C@@H]([C@H]2O[C@H](SC)[C@H](O)[C@@H](O)[C@H]2O)[C@H](C)Cl)N(C)C1 [Clindamycin] | – | – | – | – | – | – | – | – | – | – | – | – | –

Continued, molecule first:

Compound | MIC [1]; 118564 [µg/mL] | MIC [1]; 121187 [µg/mL] | MICcombo [2] [µg/mL] | MIC [2] [µg/mL] | MICcombo [3] [µg/mL] | MIC [3] [µg/mL] | MICcombo [7] [µg/mL] | MIC [7] [µg/mL] | MIC [1]; 117029 [µg/mL] | MIC ([4]; 259-96196, read-out: MIC) [µg/mL] | MIC ([4]; 262-101856, read-out: MIC) [µg/mL] | MIC ([4]; 91433, read-out: MIC) [µg/mL] | MIC ([4]; 114228, read-out: MIC) [µg/mL] | MIC ([5]; 94393 (mcr-1 +)) [µg/mL] | MIC ([5]; 94474 (mcr-1 +)) [µg/mL] | MIC [5]; 107115 [µg/mL] | MIC [6]; 113250 [µg/mL] | MIC [6]; 113254 [µg/mL] | MIC [6]; 116381 [µg/mL] | MIC ([8]; LAC-4, read-out: MIC) [µg/mL] | other results
NC[C@H]1O[C@H](O[C@H]2[C@H](O)[C@@H](O[C@H]3O[C@H](CO)[C@@H](O)[C@H](N)[C@H]3O)[C@H](N)C[C@@H]2N)[C@H](N)C[C@@H]1O [Tobramycin] | 1 (≈ 2.14 µM) | 32 (≈ 68.4 µM) | > 1 | > 1 | 1 | 2 | 1 | 1 (≈ 2.14 µM) | 2 (≈ 4.28 µM) | 256 (≈ 548 µM) | 1020 (≈ 2190 µM) | 16 (≈ 34.2 µM) | 2 (≈ 4.28 µM) | ≤ 0.5 | 32 (≈ 68.4 µM) | 8 (≈ 17.1 µM) | ≤ 0.5 | ≤ 0.5 | 4 (≈ 8.56 µM) | > 4 | MIC ([4]; 264-104354): 128 µg/mL (≈ 274 µM)
CN(C)c1ccc(O)c2c1C[C@H]1C[C@H]3[C@H](N(C)C)C(O)=C(C(N)=O)C(=O)[C@@]3(O)C(O)=C1C2=O [Minocycline] | – | – | 0.25 | 0.5 | 0.063 | 0.5 | 1 | 16 (≈ 35 µM) | 32 (≈ 69.9 µM) | 32 (≈ 69.9 µM) | 64 (≈ 140 µM) | 16 (≈ 35 µM) | 32 (≈ 69.9 µM) | 2 (≈ 4.37 µM) | 64 (≈ 140 µM) | 32 (≈ 69.9 µM) | 2 (≈ 4.37 µM) | 2 (≈ 4.37 µM) | 64 (≈ 140 µM) | 4 (≈ 8.74 µM) | MIC ([4]; 264-104354, read-out: MIC): 32 µg/mL (≈ 69.9 µM); MIC [8]: 0.125 µg/mL (≈ 0.273 µM); MIC ([8]; 110193, read-out: MIC): 1 µg/mL (≈ 2.19 µM); MIC ([8]; AB027, read-out: MIC): 0.25 µg/mL (≈ 0.546 µM); MIC ([8]; AB031, read-out: MIC): 0.25 µg/mL (≈ 0.546 µM)
CNC(C)C1CCC(N)C(OC2C(N)CC(N)C(OC3OCC(C)(O)C(NC)C3O)C2O)O1 (stereo not drawn) [Gentamicin] | 1 (≈ 2.09 µM) | > 32 | > 1 | > 1 | 1 | 2 | 2 | 2 (≈ 4.19 µM) | ≤ 0.5 | > 32 | > 32 | 32 (≈ 67 µM) | – | ≤ 0.5 | 16 (≈ 33.5 µM) | > 32 | ≤ 0.5 | ≤ 0.5 | ≤ 0.5 | > 4 | MIC ([4]; 264-104354, read-out: MIC): > 32 µg/mL; MIC ([8]; AB027, read-out: MIC): 32 µg/mL (≈ 67 µM); MIC ([8]; AB031, read-out: MIC): < 0.5 µg/mL
C=C[C@]1(C)C[C@@H](OC(=O)CO)[C@]2(C)[C@H](C)CC[C@]3(CCC(=O)[C@H]32)[C@@H](C)[C@@H]1O [Pleuromutilin] | – | – | 4 | 256 | 0.5 | 64 | 256 | 1020 (≈ 2710 µM) | – | – | – | – | – | – | – | – | – | – | – | – | –
